Here are results for 1 compound from article PMC11091968, “Degradation of the α-Carboxyl Terminus 11 Peptide: In Vivo and Ex Vivo Impacts of Time, Temperature, Inhibitors, and Gender in Rat” (ACS Pharmacology & Translational Science, 2024).

Read-outs that look alike come from different tables or passages of the source. Residues, ends and D or L forms follow the SMILES beside them. *: point of attachment. Biotin = O=C1N[C@H]2[C@H](CS[C@H]2CCCCC(=O)*)N1; Ahx = NCCCCCC(=O)O

Series [1] is described as follows: Ex vivo degradation of αCT11 in isolated rat plasma. In kind it is in vitro ADME. To be noted: for remaining at 5 min, 100 μM: 100 μM αCT11, 5 min. From the text:
A third group of rats (including both males and females) was not subjected to either MI or the tail vein injection of αCT11. Instead, after injection of heparin (300 U/mL blood, the total units of heparin were estimated from body weight of each rat), as much blood as possible was collected under deep anesthesia via a cardiac puncture with a 21G needle connected to a syringe containing heparin. Blood was then transferred into an anticlotting tube on ice, followed by plasma separation as described above. All plasma collected from either males or females were randomly sorted into 4 groups (G) per gender [G1: 22 °C; G2: 37 °C, G3: 22 °C + inhibitor cocktail and G4: 37 °C + inhibitor cocktail] and incubated at 22 °C [in an Eppendorf thermomixer (Eppendorf North America, Framingham, MA)] or at 37 °C [in a digital dry bath (Benchmark, Sayreville, NJ)] with or without additions of αCT11 (at a final concentration of 100 μM in each tube) in the presence or absence of a PTase/PPTase inhibitor cocktail (at a final concentration of 1.5× of the original concentration). It took less than ∼30 s for the 22 °C groups to reach 22 °C and ∼75 s for the 37 °C groups to reach 37 °C. […], 100 μL of plasma was taken in triplicate from the tube of each animal at 0, 5, 30, and 60 min following additions of αCT11 and the cocktail inhibitors (if applied). The collected samples were then transferred to new tubes for further preparation prior to LC/MS-MS analysis.
Plasma samples collected from either in vivo (see the In Vivo “Pharmacokinetic” Analysis of αCT11 section) or ex vivo (see the Ex Vivo Degradation Analysis of αCT11 in Rat Plasma section) groups were processed in the same way outlined here, according to the modified protocol from a previous publication.[36] Briefly, 100 μL of plasma was added to a 0.5 mL low-adhesion microcentrifuge tube containing 4% FA in 200 μL of ACN [see Table S1]. The tubes were slightly (∼1 min) vortexed and centrifuged for 5 min at 11,332g using an Eppendorf Centrifuge 5424R (Eppendorf North America, Framingham, MA) to recover the supernatants. 100 μL of the supernatant was then combined with 100 μL of deionized H2O in 2 mL amber autovials with a low-volume insert and capped. The samples were either stored at 4 °C up to 4 weeks (see the Results section) or analyzed immediately using a Waters H-Class UPLC mass spectrometer (Milford, MA) and its accompanying MassLynx software, version 4.2 (Milford, MA).
For measurement, the sample extracts were first separated chromatographically with an HSS T3 column and matching VanGurd column at 40 °C. A 4 μL sample was injected onto the column using a refrigerated autosampler at 5 °C. Mobile phase A was comprised of 1% FA in H2O and mobile phase B was comprised of 1% FA in ACN (Table S1). The mobile phase was delivered to the column at a flow rate of 0.4 mL/min. Tuning was performed on each analyte by direct infusion of a standard solution (0.1 ng/μL) at a rate of 10 μL/min. The parent and production transitions for αCT11 peptide are shown in Table S2, while the mass spectrometry parameters used for detecting αCT11 are listed in Table S3.
Data were collected at 0 min in triplicate from each group using LC/MS-MS and were first calibrated as 100%; all other data from the same group were then normalized as % change over the data at 0 min. A Student’s t-test was used for comparison of 2 groups, while 1- or 2-way ANOVA followed by Tukey’s test was used for comparisons of ≥3 groups with 1 or 2 factors. All data were expressed as mean ± standard error (SE), if not otherwise specified, with p < 0.05 considered statistically significant. Data were analyzed and plotted using GraphPad Prism 9.3.1 (San Diego, CA) and Microsoft 2019 MS Excel (Redmond, WA).

A short description of series [2]: In vivo "pharmacokinetic" analysis of αCT11 in plasma after tail vein injection. Set-up: species or system rat. To be noted: tail vein injection to 100 μM in blood, LC-MS/MS, n = 3. Here is the method: A second group of rats (only male) was not subjected to MI but injected (via the tail vein) with the same concentration of αCT11 as described in the Rat Model of I/R MI and Tail Vein Injection of αCT11 section. After injection, about 250–350 μL of blood was withdrawn at 1, 5, and 10 min following administration and transferred into an anticlotting tube containing heparin. Plasma was then separated at 4 °C and 2000g for 10 min using an Eppendorf Centrifuge 5810R (Eppendorf North America, Framingham, MA) and stored at −80 °C or used immediately for liquid chromatography tandem mass spectrometry (LC/MS-MS; described in the Prepreparation and Measurements of Plasma Containing αCT11 for LC/MS-MS Analysis section).
Plasma samples collected from either in vivo (see the In Vivo “Pharmacokinetic” Analysis of αCT11 section) or ex vivo (see the Ex Vivo Degradation Analysis of αCT11 in Rat Plasma section) groups were processed in the same way outlined here, according to the modified protocol from a previous publication.[36] Briefly, 100 μL of plasma was added to a 0.5 mL low-adhesion microcentrifuge tube containing 4% FA in 200 μL of ACN [see Table S1]. […] The samples were either stored at 4 °C up to 4 weeks (see the Results section) or analyzed immediately using a Waters H-Class UPLC mass spectrometer (Milford, MA) and its accompanying MassLynx software, version 4.2 (Milford, MA). […]

Series [3] can be described thus: Storage stability at 4 °C of plasma samples prepared for mass spectrum analysis. In kind it is physicochemical. To be noted: mass spectrum samples from male rat plasma. As to the method:
Plasma samples collected from either in vivo (see the In Vivo “Pharmacokinetic” Analysis of αCT11 section) or ex vivo (see the Ex Vivo Degradation Analysis of αCT11 in Rat Plasma section) groups were processed in the same way outlined here, according to the modified protocol from a previous publication.[36] Briefly, 100 μL of plasma was added to a 0.5 mL low-adhesion microcentrifuge tube containing 4% FA in 200 μL of ACN [see Table S1]. The tubes were slightly (∼1 min) vortexed and centrifuged for 5 min at 11,332g using an Eppendorf Centrifuge 5424R (Eppendorf North America, Framingham, MA) to recover the supernatants. 100 μL of the supernatant was then combined with 100 μL of deionized H2O in 2 mL amber autovials with a low-volume insert and capped. The samples were either stored at 4 °C up to 4 weeks (see the Results section) or analyzed immediately using a Waters H-Class UPLC mass spectrometer (Milford, MA) and its accompanying MassLynx software, version 4.2 (Milford, MA). […]
Following the initial measurements at Week 0 (i.e., Day 0 when fresh plasma was isolated and αCT11 concentrations were measured at 0 min at 22 °C and 37 °C), the same samples used in each conduction were stored at 4 °C for 1 week (A), 4 weeks (B), or 6 weeks (C) before being used again to measure the peptide concentrations. […]

In the case of `CC[C@H](C)[C@H](NC(=O)[C@H](CCC(=O)O)NC(=O)[C@H](CC(C)C)NC(=O)[C@H](CC(=O)O)NC(=O)[C@H](CC(=O)O)NC(=O)[C@@H]1CCCN1C(=O)[C@H](CCCNC(=N)N)NC(=O)[C@@H]1CCCN1C(=O)[C@H](CCCNC(=N)N)NC(=O)CCCCCNC(=O)CCCC[C@@H]1SC[C@@H]2NC(=O)N[C@@H]21)C(=O)O` [αCT11] ({Biotin-Ahx}-RPRPDDLEI-OH), the remaining at 5 min, 100 μM in series [1] (isolated heparinised female rat plasma, 22 °C, with 1.5× PTase/PPTase inhibitor cocktail, LC-MS/MS, mean ± SE, n = 3 rats, read-out: percentage of αCT11 (normalized to 0 min)) is 80.9 ± 3.7%; in series [1] (isolated heparinised female rat plasma, 37 °C, no inhibitors, LC-MS/MS, mean ± SE, n = 3 rats (9 replicates), read-out: αCT11 level, % of starting concentration (0 min)) it was 51.4 ± 3.5%; in series [1] (isolated heparinised male rat plasma, 37 °C, no inhibitors, LC-MS/MS, mean ± SE, n = 3 rats (9 replicates), read-out: αCT11 level, % of starting concentration (0 min)) it was 61.9 ± 5.7%. Further, the remaining at 1 h, 100 μM in series [1] (isolated heparinised female rat plasma, 22 °C, with 1.5× PTase/PPTase inhibitor cocktail, 100 μM αCT11, 60 min, LC-MS/MS, mean ± SE, n = 3 rats, read-out: percentage of αCT11 (normalized to 0 min)) worked out at 13.2 ± 3.3%; in series [1] (isolated heparinised female rat plasma, 37 °C, no inhibitors, 100 μM αCT11, 60 min, LC-MS/MS, mean ± SE, n = 3 rats (9 replicates), read-out: αCT11 level, % of starting concentration (0 min)), 0.1 ± 0.03%; in series [1] (isolated heparinised male rat plasma, 22 °C, with 1.5× PTase/PPTase inhibitor cocktail, 100 μM αCT11, 60 min, LC-MS/MS, mean ± SE, n = 3 rats, read-out: percentage of αCT11 (normalized to 0 min)) it was 19.1 ± 2.7%; in series [1] (isolated heparinised male rat plasma, 37 °C, no inhibitors, 100 μM αCT11, 60 min, LC-MS/MS, mean ± SE, n = 3 rats (9 replicates), read-out: αCT11 level, % of starting concentration (0 min)), 0.04 ± 0.06%. Besides, in series [1] (isolated heparinised female rat plasma, 37 °C, no inhibitors, 100 μM αCT11, 30 min, LC-MS/MS, mean ± SE, n = 3 rats (9 replicates)), the “αCT11 level, % of starting concentration (0 min)” value was found to be 1.6 ± 0.6%. Besides, the remaining at 0.5 h, 100 μM in series [1] (isolated heparinised male rat plasma, 22 °C, with 1.5× PTase/PPTase inhibitor cocktail, 100 μM αCT11, 30 min, LC-MS/MS, mean ± SE, n = 3 rats, read-out: percentage of αCT11 (normalized to 0 min)) was 41.6 ± 3.3%; in series [1] (isolated heparinised male rat plasma, 37 °C, no inhibitors, 100 μM αCT11, 30 min, LC-MS/MS, mean ± SE, n = 3 rats (9 replicates), read-out: αCT11 level, % of starting concentration (0 min)) it was 1.5 ± 1.2%. The “αCT11 in isolated plasma by 30 min” value in series [1] (isolated rat plasma, 22 and 37 °C, no inhibitors, 30 min, LC-MS/MS) was “nearly undetectable”. The “αCT11 concentrations, male vs female rat plasma” value in series [1] (isolated rat plasma, 22 or 37 °C, absence and presence of 1.5× inhibitors, any time point (0, 5, 30, 60 min), LC-MS/MS, n = 3) is listed as “no significant differences”. Also, the “αCT11 in ex vivo plasma at 60 min” value in series [1] (isolated rat plasma, males and females, 22 °C, no inhibitors, 100 μM αCT11, 60 min, LC-MS/MS) is given as “almost undetectable”. In series [1] (isolated rat plasma, males and females, 22 °C, no inhibitors, 100 μM αCT11, LC-MS/MS), the “time for αCT11 concentration to decrease to 50% in ex vivo plasma” value is on record as “about 10 min”. For the same compound, in series [2] (male rats without MI, about 5 min postinjection), the “reduction of the initial αCT11 concentration in plasma” value is on record as approximately 53%. Moreover, the “αCT11 in blood plasma 10 min after tail vein injection” value in series [2] (male rats, 10 min postinjection) is on record as “almost undetectable”. Moreover, the “storage time at 4 °C without significant degradation of αCT11” value in series [3] is recorded as “up to 4 weeks”.
